# Legend:
# [1] = test system: Kocuria rhizophila; test: Antibacterial activity against Kocuria rhizophila ATCC9341 assessed as inhibition of bacterial growth incubated for 20 hrs by liquid microculture method; assay type: functional
# [2] = test system: Staphylococcus aureus; test: Antibacterial activity against Staphylococcus aureus FDA209P JC-1 assessed as inhibition of bacterial growth incubated for 20 hrs by liquid microculture method; assay type: functional
# [3] = test system: P388; test: Cytotoxicity against mouse P388 cells assessed as inhibition of cell growth incubated for 48 hrs by MTT assay; assay type: functional, cell-based; settings: P388, 48 h
SMILES,MIC [1] [µg/mL],MIC [2] [µg/mL],IC50 [3] [µM]
C/C=C(\C)[C@H]1OC(=O)[C@H](C)[C@@H](O[C@@H]2O[C@@H](C)[C@@H](O)[C@@H](O)[C@H]2O)/C(C)=C/C=C/[C@H](C)C/C(C)=C/[C@@H](C)[C@H](O)C[C@@H](O)/C(C)=C/[C@H]1C,25,50,13.9
C/C=C(\CC)[C@H]1OC(=O)[C@H](C)[C@@H](O[C@@H]2O[C@@H](C)[C@@H](O)[C@@H](O)[C@H]2O)/C(C)=C/C=C/[C@H](C)C/C(C)=C/[C@@H](C)[C@H](O)C[C@@H](O)/C(C)=C/[C@H]1C,25,,8.4
C/C=C(\C)[C@H]1OC(=O)[C@H](C)[C@@H](O)/C(C)=C/C=C/[C@H](C)C/C(C)=C/[C@@H](C)[C@H](O)C[C@@H](O)/C(C)=C/[C@H]1C,25,,3.9

# Source: ChEMBL document CHEMBL5236622, “Krasilnikolides A and B and Detalosylkrasilnikolide A, Cytotoxic 20-Membered Macrolides from the Genus Krasilnikovia: Assignment of Anomeric Configuration by J-Based Configuration Analysis” (J Nat Prod, 2022)
